Biological target: T1, GlyT1 (Homo sapiens, UniProt P48067)
T1 construct: expressed in transfected cells
T1 sequence (P48067 1-706): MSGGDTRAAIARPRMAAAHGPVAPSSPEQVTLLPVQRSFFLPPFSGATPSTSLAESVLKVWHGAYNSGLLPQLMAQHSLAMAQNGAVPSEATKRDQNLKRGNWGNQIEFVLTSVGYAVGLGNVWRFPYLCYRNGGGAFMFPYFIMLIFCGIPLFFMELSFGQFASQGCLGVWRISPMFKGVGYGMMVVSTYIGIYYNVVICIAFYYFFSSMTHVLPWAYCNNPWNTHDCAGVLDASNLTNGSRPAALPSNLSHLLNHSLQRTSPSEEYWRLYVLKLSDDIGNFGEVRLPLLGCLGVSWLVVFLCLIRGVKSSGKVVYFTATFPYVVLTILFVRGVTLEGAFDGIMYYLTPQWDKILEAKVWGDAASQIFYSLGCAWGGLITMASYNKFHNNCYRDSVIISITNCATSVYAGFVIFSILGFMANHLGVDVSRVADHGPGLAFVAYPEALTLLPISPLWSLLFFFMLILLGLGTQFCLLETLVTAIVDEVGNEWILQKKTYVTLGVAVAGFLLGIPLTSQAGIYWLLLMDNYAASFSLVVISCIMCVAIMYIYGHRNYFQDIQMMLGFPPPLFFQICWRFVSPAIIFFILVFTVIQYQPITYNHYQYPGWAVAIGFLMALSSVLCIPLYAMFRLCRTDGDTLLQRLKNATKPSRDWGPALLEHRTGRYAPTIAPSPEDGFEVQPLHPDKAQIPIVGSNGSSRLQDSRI
Test: Glycine Transporter 1 (GlyT1) uptake assay, scintillation proximity assay of [14C]-glycine uptake
Type: cell-based
Details: SPA, four parameter logistic fit, read-out: GlyT1 (pIC50) (converted)
How it was run: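 [14C]-glycine uptake read by scintillation proximity on a plate counter. IC50 from four-parameter logistic fit of dose-response data.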

SMILES | IC50 [nM]
Cc1c(F)ccc(-n2cc3c(n2)CN(C(=O)c2cc(S(C)(=O)=O)ccc2OCC(C)C)C3)c1F [Example 67, 2-(2 4-Difluoro-3-methylphenyl)-5-[5-methanesulfonyl-2-(2-methylpropoxy)benzoyl]-2H 4H 5H 6H-pyrrolo[3,4-c]pyrazole] | < 100
CC(C)COc1ccc(S(C)(=O)=O)cc1C(=O)N1Cc2cn(-c3cc(Cl)ccc3F)nc2C1 [Example 68, 2-(5-Chloro-2-fluorophenyl)-5-[5-methanesulfonyl-2-(2-methylpropoxy)benzoyl]-2H 4H 5H 6H-pyrrolo[3,4-c]pyrazole] | < 100
Cc1c(F)ccc(-n2cc3c(n2)CN(C(=O)c2cc(S(C)(=O)=O)ccc2N2CCC(F)(F)CC2)C3)c1F [Example 70, 1-{2-[2-(2 4-Difluoro-3-methylphenyl)-2H 4H 5H 6H-pyrrolo[3,4-c]pyrazole-5-carbonyl]-4-methanesulfonylphenyl}-4 4-difluoropiperidine] | < 100
CS(=O)(=O)c1ccc(N2CCC(F)(F)CC2)c(C(=O)N2Cc3cn(-c4cc(Cl)ccc4F)nc3C2)c1 [Example 71, 1-{2-[2-(5-Chloro-2-fluorophenyl)-2H 4H 5H 6H-pyrrolo[3,4-c]pyrazole-5-carbonyl]-4-methanesulfonylphenyl}-4 4-difluoropiperidine] | < 100
CCS(=O)(=O)c1ccc(O[C@@H](C)C(F)(F)F)c(C(=O)N2Cc3cn(-c4cccc(C)c4)nc3C2)c1 [Example 72, 5-[5-(Ethanesulfonyl)-2-{[(2S)-1 1 1-trifluoropropan-2-yl]oxy}benzoyl]-2-(3-methylphenyl)-2H 4H 5H 6H-pyrrolo[3,4-c]pyrazole] | < 100
CCS(=O)(=O)c1ccc(OC(C)C)c(C(=O)N2Cc3cn(-c4ccccc4)nc3C2)c1 [Example 73, 5-[5-(Ethanesulfonyl)-2-(propan-2-yloxy)benzoyl]-2-phenyl-2H 4H 5H 6H-pyrrolo[3,4-c]pyrazole] | < 100
CCS(=O)(=O)c1ccc(OC(C)C)c(C(=O)N2Cc3cn(-c4ccccc4F)nc3C2)c1 [Example 74, 5-[5-(Ethanesulfonyl)-2-(propan-2-yloxy)benzoyl]-2-(2-fluorophenyl)-2H 4H 5H 6H-pyrrolo[3,4-c]pyrazole] | 100 to 1000
C[C@H](Oc1ccc(S(C)(=O)=O)cc1C(=O)N1Cc2cn(-c3ccc(F)c(C(F)F)c3)nc2C1)C(F)(F)F [Example 75, 2-[3-(Difluoromethyl)-4-fluorophenyl]-5-(5-methanesulfonyl-2-{[(2S)-1 1 1-trifluoropropan-2-yl]oxy}benzoyl)-2H 4H 5H 6H-pyrrolo[3,4-c]pyrazole] | < 100
CC(C)Oc1ccc(S(C)(=O)=O)cc1C(=O)N1Cc2cn(-c3ccc(F)c(C(F)F)c3)nc2C1 [Example 76, 2-[3-(Difluoromethyl)-4-fluorophenyl]-5-[5-methanesulfonyl-2-(propan-2-yloxy)benzoyl]-2H 4H 5H 6H-pyrrolo[3,4-c]pyrazole] | < 100
CC(C)(C)COc1ccc(S(C)(=O)=O)cc1C(=O)N1Cc2cn(-c3ccc(F)c(C(F)F)c3)nc2C1 [Example 77, 2-[3-(Difluoromethyl)-4-fluorophenyl]-5-[2-(2 2-dimethylpropoxy)-5-methanesulfonylbenzoyl]-2H 4H 5H 6H-pyrrolo[3,4-e]pyrazole] | < 100
CCS(=O)(=O)c1ccc(O[C@@H](C)C(F)(F)F)c(C(=O)N2Cc3cn(-c4cccc(C)c4F)nc3C2)c1 [Example 78, 5-[5-(Ethanesulfonyl)-2-{[(2S)-1 1 1-trifluoropropan-2-yl]oxy}benzoyl]-2-(2-fluoro-3-methylphenyl)-2H 4H 5H 6H-pyrrolo[3,4-c]pyrazole] | < 100
CCS(=O)(=O)c1ccc(O[C@@H](C)C(F)(F)F)c(C(=O)N2Cc3cn(-c4ccc(F)c(C(F)F)c4)nc3C2)c1 [Example 79, 2-[3-(Difluoromethyl)-4-fluorophenyl]-5-[5-(ethanesulfonyl)-2-{[(2S)-1 1 1-trifluoropropan-2-yl]oxy}benzoyl]-2H 4H 5H 6H-pyrrolo[3,4-c]pyrazole] | < 100
CCS(=O)(=O)c1ccc(O[C@@H](C)C(F)(F)F)c(C(=O)N2Cc3cn(-c4ccccc4F)nc3C2)c1 [Example 80, 5-[5-(Ethanesulfonyl)-2-{[(2S)-1 1 1-trifluoropropan-2-yl]oxy}benzoyl]-2-(2-fluorophenyl)-2H 4H 5H 6H-pyrrolo[3,4-c]pyrazole] | < 100
CCS(=O)(=O)c1ccc(OC(C)C)c(C(=O)N2Cc3cn(-c4ccc(F)cc4F)nc3C2)c1 [Example 81, 2-(2 4-Difluorophenyl)-5-[5-(ethanesulfonyl)-2-(propan-2-yloxy)benzoyl]-2H 4H 5H 6H-pyrrolo[3,4-c]pyrazole] | 100 to 1000
CCS(=O)(=O)c1ccc(OC(C)C)c(C(=O)N2Cc3cn(-c4ccc(F)c(C(F)F)c4)nc3C2)c1 [Example 82, 2-[3-(Difluoromethyl)-4-fluorophenyl]-5-[5-(ethanesulfonyl)-2-(propan-2-yloxy)benzoyl]-2H 4H 5H 6H-pyrrolo[3,4-c]pyrazole] | < 100
CCS(=O)(=O)c1ccc(OC(C)C)c(C(=O)N2Cc3cn(-c4cccc(C)c4)nc3C2)c1 [Example 83, 5-[5-(Ethanesulfonyl)-2-(propan-2-yloxy)benzoyl]-2-(3-methylphenyl)-2H 4H 5H 6H-pyrrolo[3,4-c]pyrazole] | < 100
CCS(=O)(=O)c1ccc(OC(C)C)c(C(=O)N2Cc3cn(-c4ccc(F)cc4)nc3C2)c1 [Example 84, 5-[5-(Ethanesulfonyl)-2-(propan-2-yloxy)benzoyl]-2-(4-fluorophenyl)-2H 4H 5H 6H-pyrrolo[3,4-c]pyrazole] | < 100
Cc1cccc(-n2cc3c(n2)CN(C(=O)c2cc(S(C)(=O)=O)ccc2OC(C)C)C3)c1 [Example 85, 5-[5-Methanesulfonyl-2-(propan-2-yloxy)benzoyl]-2-(3-methylphenyl)-2H 4H 5H 6H-pyrrolo[3,4-c]pyrazole] | < 100
CC(C)S(=O)(=O)c1ccc(O[C@@H](C)C(F)(F)F)c(C(=O)N2Cc3cn(-c4cccc(C(F)(F)F)c4F)nc3C2)c1 [Example 86, 2-[2-Fluoro-3-(trifluoromethyl)phenyl]-5-[5-(propane-2-sulfonyl)-2-{[(2S)-1 1 1-trifluoropropan-2-yl]oxy}benzoyl]-2H 4H 5H 6H-pyrrolo[3,4-c]pyrazole] | 100 to 1000
Cc1cccc(-n2cc3c(n2)CN(C(=O)c2cc(S(=O)(=O)C(C)C)ccc2O[C@@H](C)C(F)(F)F)C3)c1F [Example 87, 2-(2-Fluoro-3-methylphenyl)-5-[5-(propane-2-sulfonyl)-2-{[(2S)-1 1 1-trifluoropropan-2-yl]oxy}benzoyl]-2H 4H 5H 6H-pyrrolo[3,4-c]pyrazole] | 100 to 1000
CC(C)S(=O)(=O)c1ccc(O[C@@H](C)C(F)(F)F)c(C(=O)N2Cc3cn(-c4ccccc4F)nc3C2)c1 [Example 88, 2-(2-Fluorophenyl)-5-[5-(propane-2-sulfonyl)-2-{[(2S)-1 1 1-trifluoropropan-2-yl]oxy}benzoyl]-2H 4H 5H 6H-pyrrolo[3,4-c]pyrazole] | 100 to 1000
Cc1cccc(-n2cc3c(n2)CN(C(=O)c2cc(S(=O)(=O)C(C)C)ccc2O[C@@H](C)C(F)(F)F)C3)c1 [Example 89, 2-(3-Methylphenyl)-5-[5-(propane-2-sulfonyl)-2-{[(2S)-1 1 1-trifluoropropan-2-yl]oxy}benzoyl]-2H 4H 5H 6H-pyrrolo[3,4-c]pyrazole] | 100 to 1000
CC(C)S(=O)(=O)c1ccc(O[C@@H](C)C(F)(F)F)c(C(=O)N2Cc3cn(-c4ccccc4)nc3C2)c1 [Example 90, 2-Phenyl-5-[5-(propane-2-sulfonyl)-2-{[(2S)-1 1 1-trifluoropropan-2-yl]oxy}benzoyl]-2H 4H 5H 6H-pyrrolo[3,4-c]pyrazole] | 100 to 1000
CC(C)S(=O)(=O)c1ccc(O[C@@H](C)C(F)(F)F)c(C(=O)N2Cc3cn(-c4ccc(F)cc4)nc3C2)c1 [Example 91, 2-(4-Fluorophenyl)-5-[5-(propane-2-sulfonyl)-2-{[(2S)-1 1 1-trifluoropropan-2-yl]oxy}benzoyl]-2H 4H 5H 6H-pyrrolo[3,4-c]pyrazole] | 100 to 1000
CC(C)S(=O)(=O)c1ccc(O[C@@H](C)C(F)(F)F)c(C(=O)N2Cc3cn(-c4ccc(F)c(F)c4)nc3C2)c1 [Example 92, 2-(3 4-Difluorophenyl)-5-[5-(propane-2-sulfonyl)-2-{[(2S)-1 1 1-trifluoropropan-2-yl]oxy}benzoyl]-2H 4H 5H 6H-pyrrolo[3,4-c]pyrazole] | 100 to 1000
CC(C)Oc1ccc(S(=O)(=O)C(C)C)cc1C(=O)N1Cc2cn(-c3cccc(C(F)(F)F)c3F)nc2C1 [Example 93, 2-[2-Fluoro-3-(trifluoromethyl)phenyl]-5-[2-(propan-2-yloxy)-5-(propane-2-sulfonyl)benzoyl]-2H 4H 5H 6H-pyrrolo[3,4-c]pyrazole] | 1000 to 10000
Cc1cccc(-n2cc3c(n2)CN(C(=O)c2cc(S(=O)(=O)C(C)C)ccc2OC(C)C)C3)c1F [Example 94, 2-(2-Fluoro-3-methylphenyl)-5-[2-(propan-2-yloxy)-5-(propane-2-sulfonyl)benzoyl]-2H 4H 5H 6H-pyrrolo[3,4-c]pyrazole] | 1000 to 10000

Source: US9708334B2, “Substituted 2,4,5,6-tetrahydropyrrolo[3,4-c]pyrazole and 4,5,6,7-tetrahydro-2H-pyrazolo[4,3-c]pyridine compounds as GlyT1 inhibitors” (DART NEUROSCIENCE (CAYMAN) LTD., priority 2014, dated 2017)
